Measured values reported in ChEMBL document CHEMBL3886577, “N-((6-amino-pyridin-3-yl)methyl)-heteroaryl-carboxamides” (2016).
pIC50: −log10 of the molar value.

molecular target: Plasma kallikrein (Homo sapiens, UniProt P03952); experiment: (§1) In-vitro Plasma Kallikrein Inhibition: Enzymatic reactions were conducted in ⿿assay buffer⿿, comprising 50 mM Hepes/NaOH at pH 7.8, 150 mM NaCl, 1 mM EDTA and 0.05% (w/v) CHAPS. For the determination of IC50 values, the assays were performed at room temperature in 384-well plates with a total assay volume of 25.25 ul per well. The test compound was dissolved in 90% (v/v) DMSO/water. For the assays, 250 nL of the 90% (v/v) DMSO/water solution or compound solution were added per well, followed by the addition of 12.5 ul protease solution (protease in assay buffer). The final assay concentration of the human plasma kallikrein was nominally 25 pM, the 11 compound concentrations in the dilution series were in the range form 1 nM to 100 uM. After 1 hour of pre-incubation at room temperature, the reactions were started by the addition of 12.5 ul substrate solution (in assay buffer, final assay concentration was 0.5 uM). After the addition of the substrate solution, the final DMSO concentration in the assay was 0.9% (v/v).; assay type: cell-free
Sequence (P03952 20-390 limits assumed): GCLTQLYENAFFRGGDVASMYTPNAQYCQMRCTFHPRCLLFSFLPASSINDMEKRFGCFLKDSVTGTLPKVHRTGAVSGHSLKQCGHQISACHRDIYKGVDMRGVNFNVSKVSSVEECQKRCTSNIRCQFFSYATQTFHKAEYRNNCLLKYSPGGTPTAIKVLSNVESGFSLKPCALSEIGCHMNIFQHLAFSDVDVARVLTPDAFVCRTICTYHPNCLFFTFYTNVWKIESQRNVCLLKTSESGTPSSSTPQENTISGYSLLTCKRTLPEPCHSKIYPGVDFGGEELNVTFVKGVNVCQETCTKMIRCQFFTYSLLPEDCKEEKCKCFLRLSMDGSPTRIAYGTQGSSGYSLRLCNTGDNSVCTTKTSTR
Sequence (P03952 391-638 limits assumed): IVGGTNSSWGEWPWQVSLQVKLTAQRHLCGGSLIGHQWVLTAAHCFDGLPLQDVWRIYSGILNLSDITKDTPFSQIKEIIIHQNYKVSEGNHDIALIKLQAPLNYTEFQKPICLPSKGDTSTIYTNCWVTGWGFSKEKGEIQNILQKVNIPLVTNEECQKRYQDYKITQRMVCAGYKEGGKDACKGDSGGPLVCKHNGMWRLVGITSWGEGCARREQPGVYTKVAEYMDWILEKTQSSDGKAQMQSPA

Row | SMILES | pIC50
1 | Cc1cc(N)nc(C)c1CNC(=O)c1nnn(Cc2ccccc2)c1C | 4.28
2 | CNC(=O)COc1cc(N)nc(C)c1CNC(=O)c1cnn(Cc2ccccc2)c1 | 7.15
3 | Cc1cc(N)nc(C)c1CNC(=O)c1nc(Cc2ccccc2)n(C)n1 | 5.12
4 | Cc1cc(N)nc(C)c1CNC(=O)c1cn(Cc2ccc(-c3ccccc3)cc2)nn1 | 7.52
5 | Cc1cc(N)nc(C)c1CNC(=O)c1cnn(Cc2ccc(CO)cc2)c1 | 6.82
6 | COc1ccc2cc(Cn3cc(C(=O)NCc4c(C)cc(N)nc4C)cn3)ccc2c1 | 8.30
7 | Cc1cc(N)nc(C)c1CNC(=O)c1cc(C)n(Cc2ccco2)c1C | 6.13
8 | COc1cc(Cn2cc(C(=O)NCc3c(C)cc(N)nc3C)cn2)ccc1Cn1cccn1 | 10.04

tested on: not listed separately; experiment: as §1

Row | pIC50 | SMILES
9 | 7.62 | Cc1nc(N)cc(OCC(=O)C(C)(C)C)c1CNC(=O)c1cn(Cc2ccccc2)nn1
